Entries after “also recorded” stand apart in the source; their conditions may differ. Like-named read-outs stand apart in the source and are kept apart here.
Columns and labels:
ARAT = experiment: In vitro microsomal esterification of retinol, ARAT (retinyl palmitate formation); assay type: biochemical, bovine; settings: 10 micromolar retinol, 1 hour, 37° C.
Source text: It is believed that the use of retinol or esters of retinol would be preferred over retinoic acid. Retinol is an endogenous compound which occurs naturally in the human body and is essential for normal epithelial cell differentiation. Retinol is also considered much safer than retinoic acid. Esters of retinol hydrolyze in-vivo to produce retinol. […] These esterification reactions are very efficient in keratinocytes--the majority (95%) of cellular retinoids are in the form of retinyl fatty esters.
(§1) Microsomes are obtained as described in: J. C.

Human keratinocytes [1] = experiment: 3H-thymidine incorporation, keratinocyte proliferation (Example 3); assay type: cell-based; settings: for activity at […]: Homo sapiens, Keratinocyte, 250 nM, read-out: % Control (thymidine incorporation)
Method: (§2) Human keratinocytes, isolated from neonatal foreskin by trypsin treatment were grown in Dulbecco Modification Eagle (DME) Hams F12 (1:1) medium/10% fetal calf serum in the presence of irradiated 3T3 mouse fibroblasts for establishing dividing keratinocyte colonies. Cells were grown under the above condition until their second passage and kept frozen for future use. Frozen second passage keratinocytes were thawed and plated into the above medium and grown for five days before they were switched to a serum-free MCDB 153-based medium keratinocyte growth medium (KGM) from Clonetics Corporation, San Diego, Calif., containing 0.15 mM Ca, or keratinocyte serum-free media (KSFM) from GIBCO containing 0.09 mM Ca). On day 7, when the cells were 80-90% confluent, they were trypsinized and plated in the serum-free medium for the various experiments.
The incorporation of ^3 H-thymidine by cultured keratinocytes was used as an assay of keratinocyte proliferation. Thymidine is one of four deoxynucleosides which are the monomeric units of DNA, the universal library of genetic information in the animal kingdom. Prior to cell division of a somatic cell such as a keratinocyte, the complete genome of the cell undergoing cell division is replicated. This involves large scale DNA synthesis by the cell and enables both daughter cells to receive identical copies of the genetic material. When 3H-thymidine is included in the culture media of keratinocytes which are synthesizing DNA in preparation for cell division then the labelled nucleoside is incorporated into the newly synthesized DNA. The extent of incorporation of ^3 H-thymidine into a population of cells is proportional to the rate of DNA synthesis by this population of cells and therefore an indication of their cellular proliferation.
For Example 3, the following procedure was employed to measure thymidine incorporation:
Human keratinocytes were plated in 24-well plates at a density of 40,000 cells/well in 1 ml keratinocyte growth media. The cells were allowed to grow until they were 60-70% confluent (approx. 4 days), after which they were treated (in triplicate) with test agents in media for 4 hours. Tritiated thymidine (1 microcurie/ml) was then added, and the cells were incubated for an additional 18 hrs. The medium was removed and the cells were incubated for 30 minutes with ice cold 10% trichloroccetic acid. The cells were then washed 5× with 5% TCA and dissolved in 0.5 ml 0.1M NaOH. After neutralization with 0.1M HCl, aliquots were removed to measure protein and radioactivity by liquid scintillation counting.
^3 H-Thymidine incorporation was measured according to the procedure described in Materials and Methods section above.

retinol esterification = experiment: In vitro microsomal esterification of retinol, ARAT and LRAT together (statements in words); assay type: biochemical, bovine; settings: compared with farnesol
Source text: as §1

Human keratinocytes [2] = experiment: 3H-thymidine incorporation, keratinocyte proliferation (Example 1); assay type: cell-based; settings: […]10^-7, […]10^-8 and […]10^-9 M; over ethanol control and retinol treatments
Method: as §2
The incorporation of ^3 H-thymidine by cultured keratinocytes was used as an assay of keratinocyte proliferation. […]
Keratinocytes (that were cultured as described above) were plated in 24 well plates at a density of about 20,000 cells per well in 1 ml media. […] Disintegrations per minute (DPM) from ^3 H labelling of DNA was determined by liquid scintillation counting of 900 μl of the cell preparation. Thymidine incorporation results were expressed as DPM/μg protein.

TGase I = experiment: Transglutaminase (TGase I) ELISA normalized to DNA, keratinocyte differentiation (Example 1); assay type: cell-based, human; settings: […]10^-7, […]10^-8 and […]10^-9 M
Method: as §2
During the process of terminal differentiation in the epidermis, a 15 nm thick layer of protein, known as the cornified envelope (CE) is formed on the inner surface of the cell periphery. The CE is composed of numerous distinct proteins which have been cross-linked together by the formation of N^E -(γ-glutamyl) lysine isodipeptide bonds catalyzed by the action of at least two different transglutaminases (TGases) expressed in the epidermis. TGase I is expressed in abundance in the differentiated layers of the epidermis, especially the granular layer, but is absent in the undifferentiated basal epidermis. […]
Keratinocytes (cultured as described above) were plated in 96 well plates at a density of 3,000 cells per well in 200 μl media. […] The absorbance of samples was read at 492 nm in the plate reader. […] TGase levels were determined by subtracting background from the readings from each treatment and determining mean±s.d. for the replicates exposed to both Ab.
The level of TGase-1 detected after treatment of the cells could be influenced by cell number, i.e., the greater the number of cells the greater the level of TGase-1 detected. […]

SMILES	% INHIB. ARAT (ARAT; 10 μM)	% INHIB. ARAT (ARAT; 100 μM)	proliferation enhancing effect of retinol (in words) (Human keratinocytes [1]; 10 nM geranyl geraniol with 250 nM retinol, compared with retinoic acid)	inhibition of retinol esterification (in words) (retinol esterification)	keratinocyte proliferation (in words) (Human keratinocytes [2])	decrease in transglutaminase level (in words) (TGase I)	keratinocyte differentiation (in words) (TGase I; over ethanol control and corresponding retinol treatments)	activity at […] (Human keratinocytes [1]; Experiment #1)	activity at […] (Human keratinocytes [1]; Experiment #2)
CC(C)=CCCC(C)=CCCC(C)=CCO [Farnesol, farnesol]	20%	43%	–	–	–	–	–	–	–
CC(C)=CCC/C(C)=C/CC/C(C)=C/CC/C(C)=C/CO [Geranyl Geraniol, geranyl geraniol]	38%	81%	significantly increase the proliferation enhancing effect of retinol to a level similar to that which can be achieved with a comparable amount of retinoic acid	substantially more potent esterification inhibitor, than farnesol; also recorded: substantially more potent at inhibiting retinol esterification than other terpenes, e.g., farnesol	–	–	–	–	–
CC1=C(/C=C/C(C)=C/C=C/C(C)=C/C(=O)O)C(C)(C)CCC1 [RA, Retinoic Acid]	–	–	–	–	significantly increased keratinocyte proliferation	dose dependent	decreased keratinocyte differentiation	156%	163%
CC1=C(/C=C/C(C)=C/C=C/C(C)=C/CO)C(C)(C)CCC1 [ROH, Retinol]	–	–	–	–	–	dose dependent	–	108%	107%

Source: patent US5756109A, “Skin care compositions containing geranyl geraniol and retinol or retinyl esters” (Chesebrough-Pond's USA Co., Division of Conopco, Inc., priority 1996, dated 1998)
